According to patent US9440982B2 (Eolas Therapeutics, Inc., priority 2012, dated 2016):
Read-outs that look alike come from different tables or passages of the source.

Key:
CYP3A4 = molecular target: T1, CYP3A4 (Homo sapiens, UniProt P08684); test: Cytochrome P450 inhibition assay (midazolam hydroxylation); format: in vitro ADME; settings: human, human liver microsomes, probe midazolam (hydroxylation to 1′-hydroxymidazolam), 10 μM test compound, midazolam at approximately its Km
T1 construct: pre-incubated with human liver microsomes and NADPH; from tissue; host or cells: human liver microsomes
T1 sequence (P08684 whole entry): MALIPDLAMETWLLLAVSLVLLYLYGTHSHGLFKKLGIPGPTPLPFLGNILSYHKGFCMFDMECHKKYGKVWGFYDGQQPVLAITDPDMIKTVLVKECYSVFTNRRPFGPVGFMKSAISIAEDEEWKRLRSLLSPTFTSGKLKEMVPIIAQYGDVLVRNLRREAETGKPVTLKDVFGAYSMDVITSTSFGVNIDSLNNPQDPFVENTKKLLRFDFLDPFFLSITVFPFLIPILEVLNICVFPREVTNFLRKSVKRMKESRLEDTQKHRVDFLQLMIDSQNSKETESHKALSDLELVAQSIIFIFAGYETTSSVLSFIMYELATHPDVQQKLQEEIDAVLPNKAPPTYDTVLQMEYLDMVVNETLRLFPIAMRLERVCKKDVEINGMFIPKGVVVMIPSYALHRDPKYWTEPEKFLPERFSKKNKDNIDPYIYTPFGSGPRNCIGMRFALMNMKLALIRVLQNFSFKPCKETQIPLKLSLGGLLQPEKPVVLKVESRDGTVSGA
In short: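 Human liver microsomes; CYP3A4 activity as midazolam 1′-hydroxylation with substrate near Km, with or without 10 μM test compound, read as percent inhibition. For time-dependent inhibition, parallel samples were preincubated 30 min with NADPH before substrate, and percent inhibition compared with non-preincubated samples.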

OX2 = molecular target: T2, OX2 (Homo sapiens, UniProt O43614); test: Orexin receptor cell-based functional assay, [Ca2+]i by FLIPR, CHO-OX2 cells
T2 construct: expressed in transfected cells; host or cells: CHO (CHO-OX2, kept under selection antibiotic)
T2 sequence (O43614 1-444): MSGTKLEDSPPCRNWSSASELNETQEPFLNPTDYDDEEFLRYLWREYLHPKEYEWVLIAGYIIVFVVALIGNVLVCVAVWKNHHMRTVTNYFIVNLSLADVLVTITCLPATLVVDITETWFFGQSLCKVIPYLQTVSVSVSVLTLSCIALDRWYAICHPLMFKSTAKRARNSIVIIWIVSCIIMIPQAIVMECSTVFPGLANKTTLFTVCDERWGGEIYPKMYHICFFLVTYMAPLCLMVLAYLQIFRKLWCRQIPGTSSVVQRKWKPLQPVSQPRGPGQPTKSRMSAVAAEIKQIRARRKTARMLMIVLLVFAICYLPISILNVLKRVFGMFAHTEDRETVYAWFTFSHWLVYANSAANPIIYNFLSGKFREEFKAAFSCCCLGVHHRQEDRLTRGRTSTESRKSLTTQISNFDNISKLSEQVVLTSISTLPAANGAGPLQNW
Procedure: Measurement of [Ca^2+]i using a FLIPR: CHO—OX1 or CHO—OX2 cells are seeded into black-walled clear-base 384-well plates (Costar) at a density of 20,000 cells per well in F12-K medium supplemented with 10% FBS and selection antibiotic (500 ug/ml G418 or 15 ug/ml Blasticidin) and cultured overnight. The cells are incubated with equal volume of calcium4 loading buffer (Molecular Devices, Inc.) containing 2.5 mM probenecid at 37° C. for 30 min, followed by putative OX1 or OX2 receptor antagonists (dose-range 0.1 nM-10 μM) for another 30 min.
The cells are incubated with equal volume of calcium6 loading buffer (Molecular Devices, Inc.) containing 2.5 mM probenecid at 37° C. for 2 h, followed by test compounds (dose-range 0.1 nM-10 μM) for another 30 min.

OX1 = molecular target: T3, OX1 (Homo sapiens, UniProt O43613); test: Orexin receptor cell-based functional assay, [Ca2+]i by FLIPR, CHO-OX1 cells; settings: CHO-OX1 cells, EC90 of OXA
T3 construct: expressed in transfected cells; host or cells: CHO (CHO-OX1, kept under selection antibiotic)
T3 sequence (O43613 1-425): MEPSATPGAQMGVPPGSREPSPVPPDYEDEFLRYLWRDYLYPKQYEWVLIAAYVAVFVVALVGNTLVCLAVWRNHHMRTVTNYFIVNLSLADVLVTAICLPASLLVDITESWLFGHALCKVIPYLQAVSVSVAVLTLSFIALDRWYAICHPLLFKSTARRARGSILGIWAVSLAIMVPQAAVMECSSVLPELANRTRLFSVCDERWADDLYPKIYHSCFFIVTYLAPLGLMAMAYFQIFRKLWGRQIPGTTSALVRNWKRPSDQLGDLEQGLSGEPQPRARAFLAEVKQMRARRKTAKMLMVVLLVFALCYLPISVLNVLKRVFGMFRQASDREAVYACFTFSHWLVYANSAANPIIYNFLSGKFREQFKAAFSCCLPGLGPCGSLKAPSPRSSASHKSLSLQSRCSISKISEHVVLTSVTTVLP
In short: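 CHO cells expressing human OX1 or OX2 loaded with calcium dye plus 2.5 mM probenecid at 37° C (calcium4, 30 min, or calcium6, 2 h), then exposed to compounds (0.1 nM-10 μM) for 30 min. Intracellular Ca2+ measured on FLIPR; antagonist format.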

[1] = [Ca2+]i by FLIPR, antagonist dose-range 0.1 nM-10 μM, EC90 of OXA, read-out: OX2
[2] = [Ca2+]i by FLIPR, antagonist dose-range 0.1 nM-10 μM, read-out: OX1

SMILES	inhibition at 10 µM (CYP3A4) [%]	IC50 (OX2; [1]) [nM]	IC50 (OX1; [2]) [nM]	IC50 (OX2; Table 2, EC90 of OXA, read-out: IC50 Bioactivity OX2) [nM]	IC50 (OX1; Table 2, read-out: IC50 Bioactivity OX1) [nM]
C[C@@H]1CCCN(C(=O)c2c(F)ccc(F)c2-c2ncccn2)[C@@H]1CNc1ccc(C(F)(F)F)cn1 [Example A334, (3,6-difluoro-2-(pyrimidin-2-yl)phenyl)((2S,3R)-3-methyl-2-(((5-(trifluoromethyl)pyridin-2-yl)amino)methyl)piperidin-1-yl)methanone]	54	500	2		
Cc1ccc(F)c(C(=O)N2CCC[C@@H](C)[C@H]2CNc2ncc(C(F)(F)F)cn2)c1-c1ncccn1 [Example A355, (6-fluoro-3-methyl-2-(pyrimidin-2-yl)phenyl)((2S,3R)-3-methyl-2-(((5-(trifluoromethyl)pyrimidin-2-yl)amino)methyl)piperidin-1-yl)methanone]	25	870			
C[C@@H]1CCCN(C(=O)c2ccc(F)c(F)c2-n2nccn2)[C@@H]1CNc1ccc(C(F)(F)F)cn1 [Example A324, (3,4-Difluoro-2-(2H-1,2,3-triazol-2-yl)phenyl)((2S,3R)-3-methyl-2-(((5-(trifluoromethyl)pyridin-2-yl)amino)methyl)piperidin-1-yl)methanone]	87	490	1		
Cc1cc(C(=O)N2CCC[C@@H](C)[C@H]2CNc2ncc(C(F)(F)F)cn2)c(-n2nccn2)cc1F [Example A369, (4-fluoro-5-methyl-2-(2H-1,2,3-triazol-2-yl)phenyl)((2S,3R)-3-methyl-2-(((5-(trifluoromethyl)pyrimidin-2-yl)amino)methyl)piperidin-1-yl)methanone]	60	3000	4		
Cc1c(F)ccc(C(=O)N2CCC[C@@H](C)[C@H]2CNc2ncc(C(F)(F)F)cn2)c1-n1nccn1 [Example A345, (4-fluoro-3-methyl-2-(2H-1,2,3-triazol-2-yl)phenyl)((2S,3R)-3-methyl-2-(((5-(trifluoromethyl)pyrimidin-2-yl)amino)methyl)piperidin-1-yl)methanone]	60	> 5000	1		
Cc1ccc(C(=O)N2CCC[C@@H](C)[C@H]2CNc2ncc(C(F)(F)F)cn2)c(-n2nccn2)c1F [Example A357, (3-fluoro-4-methyl-2-(2H-1,2,3-triazol-2-yl)phenyl)((2S,3R)-3-methyl-2-(((5-(trifluoromethyl)pyrimidin-2-yl)amino)methyl)piperidin-1-yl)methanone]	83	> 5000	5		
Cc1cc(F)cc(C(=O)N2CCC[C@@H](C)[C@H]2CNc2ncc(C(F)(F)F)cn2)c1-n1nccn1 [Example A349, (5-fluoro-3-methyl-2-(2H-1,2,3-triazol-2-yl)phenyl)((2S,3R)-3-methyl-2-(((5-(trifluoromethyl)pyrimidin-2-yl)amino)methyl)piperidin-1-yl)methanone]	59	> 1000	2		
Cc1cc(F)cc(C(=O)N2CCC[C@@H](C)[C@H]2CNc2ccc(C(F)(F)F)cn2)c1-c1ncccn1 [Example A342, (5-Fluoro-3-methyl-2-(pyrimidin-2-yl)phenyl)((2S,3R)-3-methyl-2-(((5-(trifluoromethyl)pyridin-2-yl)amino)methyl)piperidin-1-yl)methanone]	83	380	1		
C[C@@H]1CCCN(C(=O)c2c(F)ccc(F)c2-n2nccn2)[C@@H]1CNc1ccc(C(F)(F)F)cn1 [Example A332, (3,6-Difluoro-2-(2H-1,2,3-triazol-2-yl)phenyl)((2S,3R)-3-methyl-2-(((5-(trifluoromethyl)pyridin-2-yl)amino)methyl)piperidin-1-yl)methanone]	62	> 5000	2		
Cc1cccc(-n2nccn2)c1C(=O)N1CCC[C@@H](C)[C@H]1CNc1ncc(C(F)(F)F)cn1 [Example A264, ((2S,3R)-3-Methyl-2-(((5-(trifluoromethyl)pyrimidin-2-yl)amino)methyl)piperidin-1-yl)(2-methyl-6-(2H-1,2,3-triazol-2-yl)phenyl)methanone]		> 5000	23		
Cc1ccc(-c2ncccn2)c(C(=O)N2CCC[C@@H](C)[C@H]2CNc2ncc(C(F)(F)F)cn2)c1F [Example A321]		> 5000	8		
C[C@@H]1CCCN(C(=O)c2ccc(F)cc2-c2ncccn2)[C@@H]1CNc1ccc(C(F)(F)F)cn1 [Example A234, (4-Fluoro-2-(pyrimidin-2-yl)phenyl)((2S,3R)-3-methyl-2-(((5-(trifluoromethyl)pyridin-2-yl)amino)methyl)piperidin-1-yl)methanone]		> 5000	11		
Cc1c(F)ccc(C(=O)N2CCC[C@@H](C)[C@H]2CNc2ccc(C(F)(F)F)cn2)c1-c1ncccn1 [Example A346, (4-fluoro-3-methyl-2-(pyrimidin-2-yl)phenyl)((2S,3R)-3-methyl-2-(((5-(trifluoromethyl)pyridin-2-yl)amino)methyl)piperidin-1-yl)methanone]	62	4200			
Cc1ccc(C(=O)N2CCC[C@@H](C)[C@H]2CNc2ncc(C(F)(F)F)cn2)c(-c2ncccn2)c1 [Example A340, ((2S,3R)-3-Methyl-2-(((5-(trifluoromethyl)pyrimidin-2-yl)amino)methyl)piperidin-1-yl)(4-methyl-2-(pyrimidin-2-yl)phenyl)methanone]		> 5000	2		
Cc1ccc(-n2cccn2)c(C(=O)N2CCC[C@@H](C)[C@H]2CNc2ccc(C(F)(F)F)cn2)c1 (racemic) [Example 120, rac-cis-(3-Methyl-2-(((5-(trifluoromethyl)pyridin-2-yl)amino)methyl)piperidin-1-yl)(5-methyl-2-(1H-pyrazol-1-yl)phenyl)methanone]				500	3
Cc1ccc(C(=O)N2CCC[C@@H](C)[C@H]2CNc2ccc(C(F)(F)F)cn2)c(-c2ncccn2)c1 [Example A305, ((2S,3R)-3-Methyl-2-(((5-(trifluoromethyl)pyridin-2-yl)amino)methyl)piperidin-1-yl)(4-methyl-2-(pyrimidin-2-yl)phenyl)methanone]		> 5000	9		
Cc1ccc(F)c(C(=O)N2CCC[C@@H](C)[C@H]2CNc2ncc(C(F)(F)F)cn2)c1-n1nccn1 [Example A353, (6-fluoro-3-methyl-2-(2H-1,2,3-triazol-2-yl)phenyl)((2S,3R)-3-methyl-2-(((5-(trifluoromethyl)pyrimidin-2-yl)amino)methyl)piperidin-1-yl)methanone]		> 5000	4		
C[C@@H]1CCCN(C(=O)c2ccc(F)cc2-c2ncccn2)[C@@H]1CNc1ncc(C(F)(F)F)cn1 [Example A235, (4-Fluoro-2-(pyrimidin-2-yl)phenyl)((2S,3R)-3-methyl-2-(((5-(trifluoromethyl)pyrimidin-2-yl)amino)methyl)piperidin-1-yl)methanone]		2400	12		
Cc1ccc(-n2cnc(C(F)(F)F)n2)c(C(=O)N2CC3CCCC3C2CNc2nc3cc(Cl)ccc3o2)c1 (stereo not shown) [Example A72, (1-(((5-Chlorobenzo[d]oxazol-2-yl)amino)methyl)hexahydrocyclopenta[c]pyrrol-2(1H)-yl)(5-methyl-2-(3-(trifluoromethyl)-1H-1,2,4-triazol-1-yl)phenyl)methanone]		3900	2400		
